From US11596639B2, “Substituted indole Mcl-1 inhibitors” (Vanderbilt University, priority 2016, dated 2023) come the findings set out here.

pKi: −log10 of the molar value. Read-outs that look alike come from different tables or passages of the source.

The target in one experiment is Mcl-1 (Homo sapiens (Human), UniProt Q07820). Kind of experiment: TR-FRET binding assay, FITC-Bak peptide and MBP-tagged Mcl-1. The following applies: read-out: Ki for Inhibition of Mcl-1 by TR-FRET assay. The method, then:
Compounds are diluted in DMSO in a 16-point, semilog serial dilution scheme. […] The plate was mixed and incubated for 3 hours at room temperature. […] TR-FRET signal is plotted and IC50 and Ki values are calculated in the same manner as the fluorescence polarization anisotropy based competition assays.
On the technique in general: TR-FRET usually uses a lanthanide donor and a delayed reading to cut background.

For experiment [1], the system named is H929 human cancer cell lines. Kind of experiment: Cellular viability / proliferation (Cell TiterGlo, 72 h). It is filed as cell-based. A digest of the protocol: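 Compounds were added as 2-fold serial dilutions from 50 μM (final DMSO <1%) to H929 cells seeded 1,000 per well in 10% FBS medium one day earlier.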
(ATP-based viability assays read luminescence as a measure of living cells.)

[2] abbreviates: Homo sapiens, NCI-H929, 72 h, read-out: GI50 on cellular proliferation of H929 human cancer cell lines, H929 cells, 72 h, Cell TiterGlo, 10% FBS.

Sequence of Mcl-1 (Q07820 172-327): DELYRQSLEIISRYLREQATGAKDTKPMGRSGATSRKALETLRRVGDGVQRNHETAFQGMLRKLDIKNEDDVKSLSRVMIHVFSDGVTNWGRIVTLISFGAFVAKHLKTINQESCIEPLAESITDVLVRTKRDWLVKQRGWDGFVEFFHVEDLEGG

Regarding `Cc1cc(OCCCc2c3n(c4c(-c5c(C)nn(C)c5C)c(Cl)ccc24)[C@H](C)CN(c2cn(C)c4ccc(-n5ccnn5)cc24)C3=O)cc(C)c1Cl` [Example 668, (R)-7-Chloro-10-(3-(4-chloro-3,5-dimethylphenoxy)propyl)-4-methyl-2-(1-methyl-5-(1H-1,2,3-triazol-1-yl)-1H-indol-3-yl)-6-(1,3,5-trimethyl-1H-pyrazol-4-yl)-3,4-dihydropyrazino[1,2-a]indol-1(2H)-one], the negative logarithm of the Ki (pKi) on Mcl-1 is 8.12. In experiment [1] (setting [2]), the GI50 was 1500 nM.
The like results for `Cc1cc(OCCCc2c3n(c4c(-c5c(C)nn(C)c5C)c(Cl)ccc24)[C@H](C)CN(c2cc(C(=O)O)nc4ccccc24)C3=O)cc(C)c1Cl` [Example 669, (R)-4-(7-chloro-10-(3-(4-chloro-3,5-dimethylphenoxy)propyl)-4-methyl-1-oxo-6-(1,3,5-trimethyl-1H-pyrazol-4-yl)-3,4-dihydropyrazino[1,2-a]indol-2(1H)-yl)quinoline-2-carboxylic acid] were, in that order, 9.00 and 7600 nM.
For `Cc1ccnc(-n2cnc(-c3ccc4c(c3)c(N3C[C@@H](C)n5c(c(CCCOc6cc(C)c(Cl)c(C)c6)c6ccc(Cl)c(-c7c(C)nn(C)c7C)c65)C3=O)cn4C)n2)n1` [Example 670, (R)-7-Chloro-10-(3-(4-chloro-3,5-dimethylphenoxy)propyl)-4-methyl-2-(1-methyl-5-(1-(4-methylpyrimidin-2-yl)-1H-1,2,4-triazol-3-yl)-1H-indol-3-yl)-6-(1,3,5-trimethyl-1H-pyrazol-4-yl)-3,4-dihydropyrazino[1,2-a]indol-1(2H)-one] the same measures were over 9.70 and under 200 nM.
For `COCCn1cc(C(=O)O)c2cc(OCCN(C)C)cc(N3C[C@@H](C)n4c(c(CCCOc5cc(C)c(Cl)c(C)c5)c5ccc(Cl)c(-c6c(C)nn(C)c6C)c54)C3=O)c21` [Example 671, (R)-7-(7-chloro-10-(3-(4-chloro-3,5-dimethylphenoxy)propyl)-4-methyl-1-oxo-6-(1,3,5-trimethyl-1H-pyrazol-4-yl)-3,4-dihydropyrazino[1,2-a]indol-2(1H)-yl)-5-(2-(dimethylamino)ethoxy)-1-(2-methoxyethyl)-1H-indole-3-carboxylic acid] the same measures were 9.49 and 890 nM.
For `COCc1nc(-c2ccc3c(c2)c(N2C[C@@H](C)n4c(c(CCCOc5cc(C)c(Cl)c(C)c5)c5ccc(Cl)c(-c6c(C)nn(C)c6C)c54)C2=O)cn3C)nn1C` [Example 674, (R)-7-Chloro-10-(3-(4-chloro-3,5-dimethylphenoxy)propyl)-2-(5-(5-(methoxymethyl)-1-methyl-1H-1,2,4-triazol-3-yl)-1-methyl-1H-indol-3-yl)-4-methyl-6-(1,3,5-trimethyl-1H-pyrazol-4-yl)-3,4-dihydropyrazino[1,2-a]indol-1(2H)-one], the pKi at Mcl-1 was 8.68. In experiment [1] (setting [2]), the GI50 worked out at 210 nM.
As for `Cc1cc(OCCCc2c3n(c4c(-c5c(C)nn(C)c5C)c(Cl)ccc24)[C@H](C)CN(c2cn(C)c4ccc(-c5nnc6ccccn56)cc24)C3=O)cc(C)c1Cl` [Example 675, (R)-2-(5-([1,2,4]Triazolo[4,3-a]pyridin-3-yl)-1-methyl-1H-indol-3-yl)-7-chloro-10-(3-(4-chloro-3,5-dimethylphenoxy)propyl)-4-methyl-6-(1,3,5-trimethyl-1H-pyrazol-4-yl)-3,4-dihydropyrazino[1,2-a]indol-1(2H)-one], the negative-log Ki (pKi) at Mcl-1 is 7.55. Also, in experiment [1] (setting [2]), the GI50 came out at 4800 nM.
For `COCCn1cc(C(=O)O)c2cc(OCCN3CCN(C)CC3)cc(N3C[C@@H](C)n4c(c(CCCOc5cc(C)c(Cl)c(C)c5)c5ccc(Cl)c(-c6c(C)nn(C)c6C)c54)C3=O)c21` [Example 676, (R)-7-(7-chloro-10-(3-(4-chloro-3,5-dimethylphenoxy)propyl)-4-methyl-1-oxo-6-(1,3,5-trimethyl-1H-pyrazol-4-yl)-3,4-dihydropyrazino[1,2-a]indol-2(1H)-yl)-1-(2-methoxyethyl)-5-(2-(4-methylpiperazin-1-yl)ethoxy)-1H-indole-3-carboxylic acid] the same measures were 9.25 and 1100 nM.
The like results for `COCCn1c(C(=O)O)cc2cc(COC)cc(N3C[C@@H](C)n4c(c(CCCOc5cc(C)c(Cl)c(C)c5)c5ccc(Cl)c(-c6c(C)nn(C)c6C)c54)C3=O)c21` [Example 677, (R)-7-(7-chloro-10-(3-(4-chloro-3,5-dimethylphenoxy)propyl)-4-methyl-1-oxo-6-(1,3,5-trimethyl-1H-pyrazol-4-yl)-3,4-dihydropyrazino[1,2-a]indol-2(1H)-yl)-1-(2-methoxyethyl)-5-(methoxymethyl)-1H-indole-2-carboxylic acid] were, in that order, over 9.70 and under 200 nM.
Consider `COCCOCCn1c(C(=O)O)cc2cc(C)cc(N3C[C@@H](C)n4c(c(CCCOc5cc(C)c(Cl)c(C)c5)c5ccc(Cl)c(-c6c(C)nn(C)c6C)c54)C3=O)c21` [Example 678, (R)-7-(7-chloro-10-(3-(4-chloro-3,5-dimethylphenoxy)propyl)-4-methyl-1-oxo-6-(1,3,5-trimethyl-1H-pyrazol-4-yl)-3,4-dihydropyrazino[1,2-a]indol-2(1H)-yl)-1-(2-(2-methoxyethoxy)ethyl)-5-methyl-1H-indole-2-carboxylic acid], for which, on Mcl-1, the pKi is 9.66. Moreover, the GI50 in experiment [1] (setting [2]) is under 200 nM.
`Cc1cc(OCCCc2c3n(c4c(-c5c(C)nn(C)c5C)c(Cl)ccc24)[C@H](C)CN(c2cn(C)c4ccc(-n5nnnc5C)nc24)C3=O)cc(C)c1Cl` [Example 679, (R)-7-Chloro-10-(3-(4-chloro-3,5-dimethylphenoxy)propyl)-4-methyl-2-(1-methyl-5-(5-methyl-JH-tetrazol-1-yl)-1H-pyrrolo[3,2-b]pyridin-3-yl)-6-(1,3,5-trimethyl-1H-pyrazol-4-yl)-3,4-dihydropyrazino[1,2-a]indol-1(2H)-one]: the pKi at Mcl-1 is 8.51. Also, in experiment [1] (H929 cells, 72 h, Cell TiterGlo, 10% FBS, read-out: GI50 on cellular proliferation of H929 human cancer cell lines), the GI50 is 940 nM.
In the case of `CCN(C)c1cc(N2C[C@@H](C)n3c(c(CCCOc4cc(C)c(Cl)c(C)c4)c4ccc(Cl)c(-c5c(C)nn(C)c5C)c43)C2=O)c2c(c1)cc(C(=O)O)n2C` [Example 680, (R)-7-(7-chloro-10-(3-(4-chloro-3,5-dimethylphenoxy)propyl)-4-methyl-1-oxo-6-(1,3,5-trimethyl-1H-pyrazol-4-yl)-3,4-dihydropyrazino[1,2-a]indol-2(1H)-yl)-5-(ethyl(methyl)amino)-1-methyl-1H-indole-2-carboxylic acid], at Mcl-1, the negative-log Ki (pKi) was 9.48. For the same molecule, in experiment [1] (setting [2]), the GI50 stood at 610 nM.
For the molecule `Cc1cc(OCCCc2c3n(c4c(-c5c(C)nn(C)c5C)c(Cl)ccc24)[C@H](C)CN(c2cn(C)c4ccc(-n5cncn5)cc24)C3=O)cc(C)c1Cl` [Example 681, (R)-7-Chloro-10-(3-(4-chloro-3,5-dimethylphenoxy)propyl)-4-methyl-2-(1-methyl-5-(1H-1,2,4-triazol-1-yl)-1H-indol-3-yl)-6-(1,3,5-trimethyl-1H-pyrazol-4-yl)-3,4-dihydropyrazino[1,2-a]indol-1(2H)-one], the pKi at Mcl-1 is 8.26. Further, the GI50 in experiment [1] (setting [2]) amounted to 940 nM.
The like results for `COCCN(C)c1cc(N2C[C@@H](C)n3c(c(CCCOc4cc(C)c(Cl)c(C)c4)c4ccc(Cl)c(-c5c(C)nn(C)c5C)c43)C2=O)c2c(c1)cc(C(=O)O)n2C` [Example 682, (R)-7-(7-chloro-10-(3-(4-chloro-3,5-dimethylphenoxy)propyl)-4-methyl-1-oxo-6-(1,3,5-trimethyl-1H-pyrazol-4-yl)-3,4-dihydropyrazino[1,2-a]indol-2(1H)-yl)-5-((2-methoxyethyl)(methyl)amino)-1-methyl-1H-indole-2-carboxylic acid] were, in that order, over 9.70 and 340 nM.
For `Cc1cc(OCCCc2c3n(c4c(-c5c(C)nn(C)c5C)c(Cl)ccc24)[C@H](C)CN(c2cc(N(C)C)cc4cc(C(=O)O)n(C)c24)C3=O)cc(C)c1Cl` [Example 683, (R)-7-(7-chloro-10-(3-(4-chloro-3,5-dimethylphenoxy)propyl)-4-methyl-1-oxo-6-(1,3,5-trimethyl-1H-pyrazol-4-yl)-3,4-dihydropyrazino[1,2-a]indol-2(1H)-yl)-5-(dimethylamino)-1-methyl-1H-indole-2-carboxylic acid] the same measures were 9.68 and 250 nM.
As for `Cc1nnn(-c2ccc3c(n2)c(N2C[C@@H](C)n4c(c(CCCOc5cc(C)c(Cl)c(C)c5)c5ccc(Cl)c(-c6c(C)nn(C)c6C)c54)C2=O)cn3C)n1` [Example 684, (R)-7-Chloro-10-(3-(4-chloro-3,5-dimethylphenoxy)propyl)-4-methyl-2-(1-methyl-5-(5-methyl-2H-tetrazol-2-yl)-1H-pyrrolo[3,2-b]pyridin-3-yl)-6-(1,3,5-trimethyl-1H-pyrazol-4-yl)-3,4-dihydropyrazino[1,2-a]indol-1(2H)-one], the negative logarithm of the Ki (pKi) on Mcl-1 is 9.22. The GI50 in experiment [1] (setting [2]) was found to be 520 nM.
The like results for `Cc1cc(N2C[C@@H](C)n3c(c(CCCOc4cc(C)c(Cl)c(C)c4)c4ccc(Cl)c(-c5c(C)nn(C)c5C)c43)C2=O)c2c(c1)cc1n2CCOC1=O` [Example 685, (R)-6-(7-chloro-10-(3-(4-chloro-3,5-dimethylphenoxy)propyl)-4-methyl-1-oxo-6-(1,3,5-trimethyl-1H-pyrazol-4-yl)-3,4-dihydropyrazino[1,2-a]indol-2(1H)-yl)-8-methyl-3,4-dihydro-1H-[1,4]oxazino[4,3-a]indol-1-one] were, in that order, 8.49 and 1400 nM.

A word on the pKi: it is the negative decadic logarithm of the Ki, by convention in mol/L.
